According to the supplement of paper PMC10627819:

Experiments:
S. aureus DSM 20231 = test: Bliss interaction score (quartile over a dose matrix) (fitness difference); higher = more antagonism (negative = synergy)
Procedure, shortened: (§1)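 Combination data were used to infer fitness under each single drug. Fitness is the OD595 at entry into stationary phase divided by the robust mean of the plate's no-drug wells, with a cap of 1. The Bliss score is the observed minus the expected product fitness, summarised by quartiles over technical, biological and donor/recipient replicates.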

S. aureus Newman = test: as above
Procedure, shortened: as §1

B. subtilis 168 [1] = test: as above
Procedure, shortened: as §1

S. pneumoniae D39V [2] = test: as above
Procedure, shortened: as §1

B. subtilis 168 [3] = test: fitness (endpoint OD595 vs no drug) (fraction); higher = more growth
Procedure, shortened: (§2)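 Fitness was defined as the optical density at the transition into stationary phase relative to the robust mean of no-drug control wells. Values were capped at 1. Cultures were started at OD595 0.01 in 384-well plates (30 µl, or 55 µl for S. pneumoniae) in TSB, LB Lennox or CY at 37 °C. OD595 was recorded every 30 min over 14 h, with the first reading subtracted as background.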

S. pneumoniae D39V [4] = test: as above
Procedure, shortened: as §2
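Throughout, for Bliss interaction score (quartile over a dose matrix): first quartile when negative (synergy) and third quartile when positive (antagonism).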

C[C@@H]1O[C@@H]1P(=O)(O)O [Fosfomycin] + CN(C)C(=O)C(CCN1CCC(O)(c2ccc(Cl)cc2)CC1)(c1ccccc1)c1ccccc1 [Loperamide]
Conditions | Bliss interaction score
B. subtilis 168 [1] | 0.305
S. aureus DSM 20231 | 0.116
S. aureus Newman | -0.0773
S. pneumoniae D39V [2] | 0.0632

fitness
Conditions | first compound 1.25 µg/mL | first compound 1.562 µg/mL | first compound 2.5 µg/mL | first compound 3.124 µg/mL | first compound 5 µg/mL | first compound 6.248 µg/mL
B. subtilis 168 [3], partner 25 µg/mL | – | 0.743 | – | 0.625 | – | 0.534
B. subtilis 168 [3], partner 100 µg/mL | – | 0.0187 | – | 0.0366 | – | 0.011
S. pneumoniae D39V [4], partner 17.14 µg/mL | 0.957 | – | 0.952 | – | 0.722 | –
S. pneumoniae D39V [4], partner 20 µg/mL | ≥ 1 | – | 0.985 | – | 0.81 | –
S. pneumoniae D39V [4], partner 34.28 µg/mL | 0.954 | – | 0.961 | – | 0.74 | –
S. pneumoniae D39V [4], partner 40 µg/mL | ≥ 1 | – | ≥ 1 | – | 0.77 | –

S. pneumoniae D39V [4], partner 68.57 µg/mL, one replicate
Conditions | fitness
first compound 1.25 µg/mL | 0.969
first compound 2.5 µg/mL | 0.515
first compound 5 µg/mL | 0.861

Cc1ncc([N+](=O)[O-])n1CCO [Metronidazole] + CCC(C)C1C(=O)NC(=C)C(=O)NC(C(=O)NC(CSCC(C(=O)N1)NC(=O)/C(=C/C)/NC(=O)C(C(C)CC)N)C(=O)NC2C(SCC(NC(=O)CNC(=O)C3CCCN3C2=O)C(=O)NC(CCCCN)C(=O)NC4C(SCC(NC(=O)CNC(=O)C(NC(=O)C(NC(=O)C(NC(=O)CNC4=O)C)CC(C)C)CCSC)C(=O)NC(CC(=O)N)C(=O)NC(CCSC)C(=O)NC(CCCCN)C(=O)NC5C(SCC6C(=O)NC(C(=O)NC(CSC(C(C(=O)N6)NC(=O)C(NC5=O)C)C)C(=O)NC(CO)C(=O)NC(C(C)CC)C(=O)NC(CC7=CN=CN7)C(=O)NC(C(C)C)C(=O)NC(=C)C(=O)NC(CCCCN)C(=O)O)CC8=CN=CN8)C)C)C)CC(C)C [Nisin]
main component drawn
Conditions | Bliss interaction score
B. subtilis 168 [1] | 0.0914
S. aureus DSM 20231 | 0.153
S. aureus Newman | 0.0893
S. pneumoniae D39V [2] | 0.0647

fitness, B. subtilis 168 [3], one replicate, main component drawn
Conditions | first compound 0.625 µg/mL | first compound 1.25 µg/mL | first compound 2.5 µg/mL
partner 0.5 µg/mL | 0.831 | 0.806 | 0.795
partner 1 µg/mL | 0.838 | 0.797 | 0.803
partner 1.25 µg/mL | 0.909 | 0.939 | 0.91
partner 1.6 µg/mL | 0.796 | 0.809 | 0.755
partner 2 µg/mL | 0.571 | 0.528 | 0.537
partner 2.5 µg/mL | 0.366 | 0.666 | 0.616
partner 3.2 µg/mL | 0.0225 | 0.03 | 0.0513
partner 4 µg/mL | 0.61 | 0.534 | 0.333
partner 5 µg/mL | 0.0544 | 0.0891 | 0.149
partner 6.4 µg/mL | 0.0311 | 0.0509 | 0.0479
partner 8 µg/mL | 0.0261 | 0.0271 | 0.0234
partner 16 µg/mL | 0.0228 | 0.0235 | 0.015

S. pneumoniae D39V [4], main component drawn
Conditions | fitness
first compound 1.073 µg/mL, partner 3.2 µg/mL | 0.0352
first compound 1.073 µg/mL, partner 6.4 µg/mL | 0.0007
first compound 1.25 µg/mL, partner 0.4275 µg/mL | ≥ 1
first compound 1.25 µg/mL, partner 0.855 µg/mL | ≥ 1
first compound 1.25 µg/mL, partner 1.71 µg/mL | 0.127
first compound 2.145 µg/mL, partner 1.6 µg/mL | 0.809
first compound 2.145 µg/mL, partner 3.2 µg/mL | 0.0201
first compound 2.145 µg/mL, partner 6.4 µg/mL | 0
first compound 2.5 µg/mL, partner 0.4275 µg/mL | ≥ 1
first compound 2.5 µg/mL, partner 0.855 µg/mL | ≥ 1
first compound 2.5 µg/mL, partner 1.71 µg/mL | 0.121
first compound 4.29 µg/mL, partner 1.6 µg/mL | 0.747
first compound 4.29 µg/mL, partner 3.2 µg/mL | 0.0174
first compound 4.29 µg/mL, partner 6.4 µg/mL | 0
first compound 5 µg/mL, partner 0.4275 µg/mL | 0.968
first compound 5 µg/mL, partner 0.855 µg/mL | ≥ 1
first compound 5 µg/mL, partner 1.71 µg/mL | 0.1
